Assay [1] addresses T1, MAGL (Mus musculus, UniProt O35678).
T1 sequence (O35678 1-303): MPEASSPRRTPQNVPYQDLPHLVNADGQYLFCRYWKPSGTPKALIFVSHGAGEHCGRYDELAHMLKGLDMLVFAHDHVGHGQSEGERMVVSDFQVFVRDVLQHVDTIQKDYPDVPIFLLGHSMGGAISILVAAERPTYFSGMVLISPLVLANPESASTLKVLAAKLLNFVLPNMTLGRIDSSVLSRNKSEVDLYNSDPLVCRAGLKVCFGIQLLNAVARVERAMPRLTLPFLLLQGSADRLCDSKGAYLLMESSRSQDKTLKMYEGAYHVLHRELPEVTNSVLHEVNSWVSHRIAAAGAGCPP
In words: In vitro competitive activity-based protein profiling, MAGL, mouse. To be noted: read-out: MAGL % inh. 1 μM (mouse).

The target of assay [2] is T2, FAAH (Mus musculus, UniProt O08914).
T2 sequence (O08914 1-579): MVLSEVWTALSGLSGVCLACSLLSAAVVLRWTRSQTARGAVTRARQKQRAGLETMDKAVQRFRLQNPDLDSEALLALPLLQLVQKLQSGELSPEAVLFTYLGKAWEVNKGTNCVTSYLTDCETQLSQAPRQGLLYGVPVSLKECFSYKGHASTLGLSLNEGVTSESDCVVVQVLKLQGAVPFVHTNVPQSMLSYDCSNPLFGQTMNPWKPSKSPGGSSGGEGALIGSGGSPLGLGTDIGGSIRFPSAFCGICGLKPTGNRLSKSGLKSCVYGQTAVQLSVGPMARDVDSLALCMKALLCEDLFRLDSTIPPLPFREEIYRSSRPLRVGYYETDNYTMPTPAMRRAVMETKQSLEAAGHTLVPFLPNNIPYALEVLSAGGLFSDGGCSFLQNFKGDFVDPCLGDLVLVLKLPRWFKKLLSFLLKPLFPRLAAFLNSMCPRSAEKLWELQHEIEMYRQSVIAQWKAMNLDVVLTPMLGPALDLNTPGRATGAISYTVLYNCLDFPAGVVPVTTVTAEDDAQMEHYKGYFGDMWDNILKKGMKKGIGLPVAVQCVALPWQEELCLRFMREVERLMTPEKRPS
Briefly: In vitro competitive activity-based protein profiling, FAAH, mouse. To be noted: read-out: FAAH % inh. 1 μM (mouse).

The target of assay [3] is T3, FAAH (Homo sapiens, UniProt O00519).
T3 sequence (O00519 1-579): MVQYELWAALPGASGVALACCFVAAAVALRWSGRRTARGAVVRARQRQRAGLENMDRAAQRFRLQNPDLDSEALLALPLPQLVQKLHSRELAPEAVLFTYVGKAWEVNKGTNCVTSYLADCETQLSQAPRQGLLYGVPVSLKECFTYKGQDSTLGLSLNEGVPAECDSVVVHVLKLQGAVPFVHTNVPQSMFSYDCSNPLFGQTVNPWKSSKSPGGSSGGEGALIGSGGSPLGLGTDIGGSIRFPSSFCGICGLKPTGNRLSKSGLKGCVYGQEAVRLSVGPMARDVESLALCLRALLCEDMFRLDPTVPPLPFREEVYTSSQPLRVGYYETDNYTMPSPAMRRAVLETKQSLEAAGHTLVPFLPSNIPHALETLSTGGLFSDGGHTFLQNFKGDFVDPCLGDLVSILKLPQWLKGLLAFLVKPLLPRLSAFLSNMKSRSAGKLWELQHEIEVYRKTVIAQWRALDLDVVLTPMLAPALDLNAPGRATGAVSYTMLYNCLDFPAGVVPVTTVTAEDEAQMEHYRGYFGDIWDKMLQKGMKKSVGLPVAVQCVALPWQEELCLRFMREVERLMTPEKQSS
Briefly: In vitro competitive activity-based protein profiling, FAAH, human. The following applies: for inhibition at 1 µM: read-out: FAAH % inh. 1 μM (human).
Method: Biological Evaluation In Vitro Competitive Activity-Based Protein Profiling.
Proteomes (mouse brain membrane fraction for mouse assays; human prefrontal cortex membrane fractions for human assays) (50 mL, 1.0 mg/mL total protein concentration) were preincubated with varying concentrations of inhibitors at 37° C. After 30 min, FP-Rh (1.0 mL, 50 mM in DMSO) was added and the mixture was incubated for another 30 min at 37° C. Reactions were quenched with SDS loading buffer (15 μL—4λ) and run on SDS-PAGE.

For assay [4], the target named is T4, MAGL (Homo sapiens, UniProt Q99685).
T4 sequence (Q99685 1-303): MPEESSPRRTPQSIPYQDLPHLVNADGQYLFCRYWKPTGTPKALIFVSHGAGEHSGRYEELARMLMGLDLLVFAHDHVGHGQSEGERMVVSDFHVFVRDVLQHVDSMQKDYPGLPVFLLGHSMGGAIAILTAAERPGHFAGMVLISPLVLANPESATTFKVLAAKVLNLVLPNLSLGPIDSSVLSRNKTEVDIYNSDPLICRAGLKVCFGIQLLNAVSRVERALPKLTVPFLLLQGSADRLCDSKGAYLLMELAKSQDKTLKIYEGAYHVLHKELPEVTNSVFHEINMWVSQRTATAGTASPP
Briefly: In vitro competitive activity-based protein profiling, MAGL, human. The following applies: for inhibition at 1 µM: read-out: MAGL % inh. 1 μM (human).

With `O=C(O)c1ccn(C(=O)N2CCN(Cc3cccc(Oc4ccncc4)c3)CC2)n1` [Example 59, 1-(4-(3-(pyridin-4-yloxy)benzyl)piper-azine-1-carbonyl)-1H-pyrazole-3-carboxylic acid], the inhibition at 1 µM on MAGL [1] was greater than 75%; on FAAH [2], 0 to 25%; on FAAH [3], 0 to 25%; on MAGL [4], greater than 75%.

Take `CN(Cc1cccc(-c2ccccc2)c1)[C@@H]1C[C@@H]2CN(C(=O)n3ccc(C(=O)O)n3)C[C@@H]2C1` [Example 163, 1-(cis-5-(([1,1′-biphenyl]-3-ylmethyl)(methyl)amino)octahydro-cyclopenta[c]pyrrole-2-carbonyl)-1H-pyrazole-3-carboxylic acid]: the inhibition at 1 µM fell in the range of 0 to 25% at MAGL [1], 0 to 25% on FAAH [2], 25 to 50% at FAAH [3] and 0 to 25% at MAGL [4].

Consider `O=C(O)c1ccn(C(=O)N2C[C@H]3C[C@@H](OCc4cc(F)cc(Cl)c4)C[C@H]3C2)n1` [Example 193, 1-(cis-5-((3-chloro-5-fluorobenzyl)oxy)octahydrocyclopenta [c]pyrrole-2-carbonyl)-1H-pyrazole-3-carboxylic acid], for which the inhibition at 1 µM at MAGL [1] is 25 to 50%; on FAAH [2], greater than 75%; on FAAH [3], greater than 75%; on MAGL [4], 25 to 50%.

Consider `O=C(O)c1ccn(C(=O)N2CCC3(CCN(Cc4cnccc4C(F)(F)F)C3)CC2)n1` [Example 127], for which the inhibition at 1 µM is greater than 75% at MAGL [1], 0 to 25% on FAAH [2], 0 to 25% on FAAH [3] and greater than 75% on MAGL [4].

For `O=C(O)c1nn(C(=O)N2CCN(Cc3ccc(-c4cnc5ccccn45)cc3C(F)(F)F)CC2)cc1Cl` [Example 145, 4-chloro-1-(4-(4-(imidazo[1,2-a]pyridin-3-yl)-2-(trifluoromethyl)benzyl)piperazine-1-carbonyl)-1H-pyrazole-3-carboxylic acid], the inhibition at 1 µM was greater than 75% at MAGL [1], greater than 75% on FAAH [2], 50 to 75% at FAAH [3] and greater than 75% on MAGL [4].

For the compound `O=C(O)c1ccn(C(=O)N2CCC(NCc3cccc(Oc4ccc(Cl)cc4)c3)CC2)n1` [Example 190, 1-(4-((3-(4-chlorophenoxy)benzyl)amino)piper-idine-1-carbonyl)-1H-pyrazole-3-carboxylic acid], the inhibition at 1 µM was 0 to 25% at MAGL [1], 50 to 75% at FAAH [2], 25 to 50% on FAAH [3] and 25 to 50% at MAGL [4].

With `O=C(O)c1nn(C(=O)N2CCC3(CCN(Cc4ccc(N5CCCC5)cc4C(F)(F)F)C3)CC2)cc1C(F)(F)F` [Example 150, 1-(2-(4-(pyrrolidin-1-yl)-2-(trifluoromethyl)benzyl)-2,8-diazaspiro[4.5]decane-8-carbonyl)-4-(trifluoromethyl)-1H-pyrazole-3-carboxylic acid], the inhibition at 1 µM on MAGL [1] is 25 to 50%; on FAAH [2] it was greater than 75%; on FAAH [3], 50 to 75%; on MAGL [4] it was 25 to 50%.

As for `Cc1cc(CO[C@H]2C[C@@H]3CN(C(=O)n4ccc(C(=O)O)n4)C[C@@H]3C2)ccc1C(F)(F)F` [Example 172, 1-(trans-5-((3-methyl-4-(trifluoromethyl)benzyl)oxy)octa-hydrocyclopenta[c]pyrrole-2-carbonyl)-1H-pyrazole-3-carboxylic acid], the inhibition at 1 µM on MAGL [1] was greater than 75%; at FAAH [2], 50 to 75%; on FAAH [3], greater than 75%; at MAGL [4], greater than 75%.

`O=C(O)c1ccn(C(=O)N2CCC3(CCN(C(=O)c4cc5ccc(C(F)(F)F)cc5s4)C3)CC2)n1` [Example 58, 1-(2-(6-(trifluoromethyl)benzo[b]thiophene-2-carbonyl)-2,8-diazaspiro[4.5]decane-8-carbonyl)-1H-pyrazole-3-carboxylic acid]: the inhibition at 1 µM is greater than 75% at MAGL [1], 50 to 75% on FAAH [2], 0 to 25% on FAAH [3] and greater than 75% on MAGL [4].

Regarding `O=C(O)c1nn(C(=O)N2CC3CN(Cc4ccc(-c5nnn[nH]5)cc4C(F)(F)F)CC3C2)cc1Cl` (stereo not drawn) [Example 141, 1-(5-(4-(1H-tetrazol-5-yl)-2-(trifluoromethyl)benzyl)octahydro-pyrrolo[3,4-c]pyrrole-2-carbonyl)-4-chloro-1H-pyrazole-3-carboxylic acid], the inhibition at 1 µM at MAGL [1] and at FAAH [2] was 0 to 25% throughout. Moreover, on FAAH [3] (read-out: FAAH % inh. (human) at 50 uM), the inhibition at 50 µM is greater than 75%. Besides, on MAGL [4] (read-out: MAGL % inh. (human) at 10 uM), the inhibition at 10 µM is greater than 75%.

For `O=C(O)c1ccn(C(=O)N2CCN(Cc3cc(N4CCCC4)cc(C(F)(F)F)c3)CC2)n1` [Example 87, 1-(4-(3-(pyrrolidin-1-yl)-5-(trifluoromethyl)benzyl)piperazine-1-carbonyl)-1H-pyrazole-3-carboxylic acid], the inhibition at 1 µM on MAGL [1] is greater than 75%; at FAAH [2], 0 to 25%; on FAAH [3], 0 to 25%; on MAGL [4], greater than 75%.

Regarding `O=C(O)c1ccn(C(=O)N2CCN(Cc3ccc(Cl)cc3N3CCN(C4CC4)CC3)CC2)n1` [Example 97, 1-(4-(4-chloro-2-(4-cyclopropylpiper-azin-1-yl)benzyl)piperazine-1-carbonyl)-1H-pyrazole-3-carboxylic acid], the inhibition at 1 µM is greater than 75% on MAGL [1], 0 to 25% on FAAH [2], 0 to 25% at FAAH [3] and greater than 75% at MAGL [4].

In the case of `O=C(O)c1ccn(C(=O)N2CCC3(CCN(Cc4ccc(N5CCCC5)cc4C(F)(F)F)C3)CC2)n1` [Example 191, 1-(2-(4-(pyrrolidin-1-yl)-2-(trifluoromethyl)benzyl)-2,8-diazaspiro[4.5]decane-8-carbonyl)-1H-pyrazole-3-carboxylic acid], the inhibition at 1 µM on MAGL [1] was greater than 75%; on FAAH [2], 0 to 25%; at FAAH [3], 0 to 25%; at MAGL [4], greater than 75%.

`NC(=O)c1ccn(C(=O)N2CCN(Cc3ccc(Cl)cc3)CC2)n1` [Example 181, 1-(4-(4-chlorobenzyl)pipera-zine-1-carbonyl)-1H-pyrazole-3-carboxamide]: the inhibition at 1 µM at MAGL [1], on FAAH [2], at FAAH [3] and on MAGL [4] was greater than 75% throughout.

Regarding `O=C(O)c1ccn(C(=O)N2CCN(Cc3cccc(Oc4cncnc4)c3)CC2)n1` [Example 65, 1-(4-(3-(pyrimidin-5-yloxy)benzyl)piper-azine-1-carbonyl)-1H-pyrazole-3-carboxylic acid], the inhibition at 1 µM on MAGL [1] fell in the range of 25 to 50%; at FAAH [2] it was 0 to 25%; at FAAH [3], 0 to 25%; at MAGL [4], 50 to 75%.

For the origin of these results see US10266497B2 (ABIDE THERAPEUTICS, INC., priority 2017, dated 2019).
